Molecules are shown by their SMILES.

Broadly, the logD is the decadic logarithm of the distribution of all forms, ionised or not, between an organic phase and buffer at a given pH. The low end stands for a more hydrophilic compound, the high end for a more lipophilic compound. By logP is commonly meant the decadic logarithm of the partition coefficient of the neutral form, usually between octanol and water.

Series [1] is described as follows: method code SF-AS, from DOI: 10.1002/qua.560100722.
Test in series [2]: not given
This is another data set of the same source.

Series [3] is described as follows: method code SF-AS, from DOI: 10.1016/0045-6535(84)90003-1.
Series [4] in a line: method code SF-FL, from DOI: 10.1016/0006-2952(96)00248-1, PMID: 8687500.
Series [5] in a line: method code SF-GLC, from DOI: 10.1021/je970020p.
Series [6] is described as follows: method code SF-HPLC, from DOI: 10.1021/jm00169a024, PMID: 2194033. To be noted: pH 7.4.
Test in series [7]: not given
The source holds these as a separate data set.

A short description of series [8]: method code SF-AS, from PMID: 640322. To be noted: pH 4.0.
Test in series [9]: not given
The source holds these as a separate data set.

Series [10] can be described thus: method code HPLC, from DOI: 10.1016/j.ejmech.2015.05.022, PMID: 26005028. The note with it: pH 7.1.
A short description of series [11]: method code SF-RC, from DOI: 10.1002/ps.2780190203.
Test in series [12]: not given
The source holds these as a separate data set.

A short description of series [13]: method code SF, from DOI: 10.1093/jnci/60.2.345, PMID: 621753.
Series [14] in a line: method code SF-GLC, from DOI: 10.1021/jm00240a002, PMID: 1151965.
Test in series [15]: not given
The source holds these as a separate data set.

Test in series [16]: not given
This is another data set of the same source.

A short description of series [17]: method code SF, from DOI: 10.1016/0006-2952(91)90449-f, PMID: 1930261. The note with it: pH 2.0.
Series [18] is described as follows: method code HPLC, from DOI: 10.1016/j.bmcl.2004.01.062, PMID: 15026043. The note with it: pH 5.5.
The nature of series [19]: method code SF, from DOI: 10.1016/0378-5173(85)90077-8.
Test in series [20]: not given
The source holds these as a separate data set.

Test in series [21]: not given
The source holds these as a separate data set.

The nature of series [22]: method code SF-GLC, from DOI: 10.1016/0043-1354(83)90068-4.
Test in series [23]: not given
This is another data set of the same source.

Series [24] in a line: method code SF-HPLC, from DOI: 10.1016/j.jchromb.2013.02.012, PMID: 23500352. The note with it: pH 4.4.
The nature of series [25]: method code SF-HPLC, from DOI: 10.1016/j.bmcl.2004.01.062, PMID: 15026043. The note with it: pH 5.5.
Test in series [26]: not given
This is another data set of the same source.

Series [27] in a line: method code SF-GLC, from Park, Y.; Park, S. (2000). Determination and prediction of octanol/water partition coefficients and air-water partition coefficients for environmental toxic chemicals. 11(7)773-779.

On to `COc1cccc2c1C(=O)c1c(O)c3c(c(O)c1C2=O)C[C@@](O)(C(C)=NNC(=O)c1ccccc1)C[C@@H]3O[C@H]1C[C@H](N)[C@H](O)[C@H](C)O1`, for which, in [1] (pH 8.8), the logD stood at 0.76.

The compound `CC(C)(C)CO` came in with a logP of 1.29.

In the case of `Nc1ncnc2nn[nH]c12`, the logP in series [2] was -0.96.

The compound `Oc1ccc(Cl)c(Cl)c1Cl` came in with a logP in series [3] of 3.8.

In the case of `COc1cccc2c1C(=O)c1c(O)c3c(c(O)c1C2=O)C[C@@](O)(C(C)=O)C[C@@H]3O[C@H]1C[C@H](NC(=O)CCCNC(=O)[C@@H]2O[C@H](C(=O)O)[C@@H](O)[C@H](O)[C@H]2O)[C@H](O)[C@H](C)O1`, in [4], the logP was -2.

`Clc1cc(Cl)c(Cl)c(Cl)c1Cl` registered a logP in series [5] of 5.2.

In turn, `CCN1C[C@H]([C@@H](O)[C@H](CC2CCCCC2)NC(=O)[C@@H](Cc2cnc[nH]2)NC(=O)[C@@H](Cc2ccc(OC)cc2)NC(=O)N(C)CCOCOCCOC)OC1=O` showed a pH-dependent lipophilicity (logD) in series [6] of 2.03.

For `COc1cccc2c1C(=O)c1c(O)c3c(c(O)c1C2=O)CC(O)(C(C)=O)CC3OC1CC(NC(=O)CN)C(O)C(C)O1` (stereo unspecified), the logD in series [1] (pH 7.8) was found to be 0.64.

For the compound `Oc1cccc(Br)c1Br`, in [7], the logP amounted to 3.37.

For the compound `NC(=O)N(CCCCCCN(N=O)C(N)=O)N=O`, the log distribution coefficient (logD) in series [8] is 0.58.

In series [9], `Cc1cc(C(=O)N2Cc3ccc(C(=O)N(CCO)CCF)n3Cc3ccccc32)ccc1-c1ccccc1C(F)(F)F` displayed a logP of 4.89.

`CCCNC(=O)CBr` had a logD in series [10] of 0.91.

In the case of `Cc1cc(OCC(=O)O)ccc1S(C)(=O)=O`, the logP in [11] was 0.54.

In turn, `CC(=O)OC[C@H]1O[C@@H](OC(C)=O)[C@H](NC(=O)CBr)[C@@H](OC(C)=O)[C@@H]1OC(C)=O` registered a logD in [10] of 0.23.

Compound `Oc1c(Cl)ccc(Cl)c1Cl` gave a logP in [3] of 3.77.

`COc1ccc(CC2C(=O)NC(C)C(=O)N(C)C3Cc4ccc(cc4)Oc4cc(ccc4OC(C)=O)CC(C(=O)NC(C)C(=O)NC(C)C(=O)N2C)N(C)C3=O)cc1` (stereo unspecified) had a logP in series [12] of 3.19.

As for `COc1cccc2c1C(=O)c1c(O)c3c(c(O)c1C2=O)CC(O)(C(C)=O)CC3OC1CC(NC(=O)CN(C)C)C(O)C(C)O1` (stereo unspecified), the logD in [1] (pH 7.8) worked out at 1.26.

The compound `O=NN(CCCl)C(=O)N1CCCC1` came in with a logP in series [13] of 0.9.

`FC(F)OC(F)(F)C(F)Cl` (stereo unspecified) showed a log partition coefficient (logP) in series [14] of 2.1.

In the case of `O=c1ccc(O)n[nH]1`, the logP in series [11] was -0.63.

Compound `Oc1c(Cl)cccc1Cl` returned a logP in series [15] of 2.92.

Compound `COc1ccnnc1` returned a logP in series [16] of 0.24.

On to `O=NN(CCCl)C(=O)NCCO`, for which the logP in [13] was 0.3.

As for `O=C1NC(=O)C(O)C(=O)N1`, the log distribution coefficient (logD) in series [17] was -1.85.

With `COc1cccc2c1C(=O)c1c(O)c3c(c(O)c1C2=O)C[C@@](O)(C(C)=O)C[C@@H]3O[C@H]1C[C@H](NC(=O)Cc2ccccc2NC(=O)[C@@H]2O[C@H](C(=O)O)[C@@H](O)[C@H](O)[C@H]2O)[C@H](O)[C@H](C)O1`, the logP in [4] is -1.1.

In series [18], `CCOC(=O)C(Cc1ccc(OC(=O)N(C)C)cc1)NC(=O)C1N(S(=O)(=O)c2cnn(C)c2)CSC1(C)C` (stereo unspecified) showed a logD of 2.14.

Consider `CCN1CC(C(O)C(CC2CCCCC2)NC(=O)C(Cc2cnc[nH]2)NC(=O)N(Cc2ccc(OC)cc2)C(=O)N(C)CCOCOC)OC1=O` (stereo unspecified), for which the logD in series [6] was 2.3.

The compound `CCOCC` displayed a logP in series [14] of 0.89.

`CCCCCC(=O)OCC(=O)[C@@]1(O)CC[C@H]2[C@@H]3CCC4=CC(=O)CC[C@]4(C)[C@H]3[C@@H](O)C[C@@]21C` registered a logP in series [19] of 3.7.

`O=[N+]([O-])c1ccc(Cl)c(Cl)c1Cl`: the logP in series [20] came out at 3.54.

Consider `c1ccnnc1`, for which the logP in series [16] was -0.15.

With `Oc1c(F)c(F)c(F)c(F)c1F`, in series [7], the log partition coefficient (logP) came out at 2.96.

Regarding `C=CC(=O)OC`, the logP in series [21] came to 0.74.

With `BrC=C(Br)Br`, in [22], the logP is 3.2.

Take `CC(C)C(=O)NC(N)=O`: the logP in series [23] amounted to 0.04.

In series [5], `Clc1cc(Cl)cc(Cl)c1` registered a logP of 4.09.

`CN(C)C(=O)Oc1ccc(CC(NC(=O)C2N(S(=O)(=O)c3cnn(C)c3)CSC2(C)C)C(=O)OCOC(=O)C(C)(C)C)cc1` (stereo unspecified) displayed a logD in [18] of 3.14.

`CS(=O)(=O)OC[C@H](O)[C@@H](O)COS(C)(=O)=O`: the logD in series [24] is -1.58.

In series [22], `BrC1CCCCC1` yielded a lipophilicity (logP) of 3.2.

In [12], `COc1ccc(CC2C(=O)NC(C)C(=O)N(C)C3Cc4ccc(cc4)Oc4cc(ccc4OC)CC(C(=O)NC(C)C(=O)NC(C)C(=O)N2C)N(C)C3=O)cc1` (stereo unspecified) returned a lipophilicity (logP) of 3.17.

As for `CC(C)CC(=O)NC(N)=O`, the logP in series [23] was determined as 0.45.

Take `Cc1cc(C(=O)N2Cc3ccc(C(=O)N(C)CCF)n3Cc3ccccc32)ccc1-c1ccccc1C(F)(F)F`: in series [9], the logP turned out to be 5.2.

As to `Oc1c(Cl)c(Cl)cc(Cl)c1Cl`, in [15], the logP came out at 4.47.

In [17], `O=C1NC(=O)C(=O)C(=O)N1` came in with a logD of -1.86.

`OCCBr` came in with a logP of 0.29.

In turn, `COCCOCCOC(=O)C(Cc1ccc(OC(=O)N(C)C)cc1)NC(=O)C1N(S(=O)(=O)c2cnn(C)c2)CSC1(C)C` (stereo unspecified) showed a logD in [25] of 1.41.

As to `CCCCCCCC(=O)OCC(=O)[C@@]1(O)CC[C@H]2[C@@H]3CCC4=CC(=O)CC[C@]4(C)[C@H]3[C@@H](O)C[C@@]21C`, in series [19], the logP was 4.37.

In turn, `O=c1[nH]cnc2c1ncn2[C@@H]1O[C@H](CO)[C@@H](O)[C@H]1O` registered a log partition coefficient (logP) in series [2] of -1.81.

Regarding `CS(=O)(=O)OC[C@H](O)[C@@H]1CO1`, the logD in [24] is -1.18.

Regarding `O=[N+]([O-])c1ccc(CCBr)cc1`, in series [20], the logP is 2.9.

Take `CCN1CC(C(O)C(CC2CCCCC2)NC(=O)[C@H](Cc2cnc[nH]2)NC(=O)[C@H](Cc2ccc(OC)cc2)NC(=O)N(C)CC(O)CO)OC1=O` (stereo partly specified): the logD in [6] was found to be 1.42.

In series [26], `CCCCCC(C)=O` displayed a logP of 2.08.

In series [4], `COc1cccc2c1C(=O)c1c(O)c3c(c(O)c1C2=O)C[C@@](O)(C(C)=O)C[C@@H]3O[C@H]1C[C@H](NC(=O)OCc2ccc(NC(=O)[C@@H]3O[C@H](C(=O)O)[C@@H](O)[C@H](O)[C@H]3O)cc2)[C@H](O)[C@H](C)O1` yielded a lipophilicity (logP) of -1.7.

`C=CC(=O)OCC(C)(C)C`: the logP in [21] amounted to 2.32.

The compound `Cc1cc(C(=O)N2Cc3ccc(C(=O)N(CCO)CCO)n3Cc3ccccc32)ccc1-c1ccccc1CCF` registered a logP in series [9] of 3.14.

For `CC(=O)CC(C)C`, the logP in series [27] is 1.4.

Consider `CN(C)C(=O)Oc1ccc(CC(C(=O)OCC(C)(C)C)C(=O)C2N(S(=O)(=O)c3cnn(C)c3)CSC2(C)C)cc1` (stereo unspecified), for which the logD in series [25] amounted to 3.42.

Consider `C1CCOC1`, for which the logP in series [27] is 0.5.

In series [8], `CCCCN(N=O)C(N)=O` yielded a logD of 1.04.

In turn, `COc1ccc(CC2C(=O)NC(C)C(=O)N(C)C3Cc4ccc(cc4)Oc4cc(ccc4O)CC(C(=O)NC(C)C(=O)NC(C)C(=O)N2C)N(C)C3=O)cc1` (stereo unspecified) showed a logP in [12] of 2.72.

In series [26], `CCCOC(C)=O` yielded a logP of 1.11.

Source of the values: the SangsterLogP compilation.
